The values below are quoted from earlier work in US7422607B2, “Anti-calcification treatments for heart valves and vascular grafts” (priority 2004, dated 2008).

Each structure is given as a SMILES string.

For this data set the following is noted: buffer system described by Giradot (U.S. Pat. No. 4,976,733).

Turning to `CCCCCCCC/C=C\CCCCCCC(N)C(=O)O` (stereo not drawn) [alpha amino oleic acid], the “Solubility in the buffer system” value is on record as “extremely low solubility”.
